Data from PubChem BioAssay (NCI).
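Tested at 5 concentrations; 48 h exposure; 96-well plates; endpoints linearly interpolated, else capped at highest concentration. The concentration for 50% growth inhibition is given as GI50. Definition used: TGI = concentration required for complete inhibition of growth.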 Where a SMILES comes first, the peptide text is derived from it.

Columns and labels:
Assay in all cases: inhibition of tumour cell growth, NCI panel, 48 h
[1] = test system: A498 renal
[2] = test system: HCC-2998 colon
[3] = test system: HT29 colon
[4] = test system: MCF7 breast
[5] = test system: NCI-H226 lung
[6] = test system: NCI-H522 lung
[7] = test system: SK-OV-3 ovarian
[8] = test system: SN12C renal
[9] = test system: U251 CNS
[10] = test system: UACC-257 melanoma

SMILES | TGI [1] | TGI [2] | TGI [3] | TGI [4] | TGI [5] | TGI [6] | TGI [7] | TGI [8] | TGI [9] | TGI [10] | GI50 [1] | GI50 [6] | GI50 [2] | GI50 [3] | GI50 [4] | GI50 [5] | GI50 [7] | GI50 [8] | GI50 [9] | GI50 [10]
CNC(=S)/C(=N\Nc1nc[nH]c1C(N)=O)C(N)=S | > 75.6 µM | 22.8 µM | > 100 µM | > 100 µM | > 33.9 µM | > 91.7 µM | > 31.6 µM | 18.9 µM | > 82.8 µM | > 100 µM | – | – | – | – | – | – | – | – | – | –
CCN1CC2=C(N=c3s/c(=C\c4ccc(Cl)cc4)c(=O)n3C2c2ccc(Cl)cc2)/C(=C/c2ccc(Cl)cc2)C1 (stereo unspecified) | 64.6 µM | > 100 µM | > 100 µM | > 100 µM | > 100 µM | > 100 µM | > 100 µM | – | > 100 µM | > 100 µM | – | – | – | – | – | – | – | – | – | –
CCN(CC)c1ccc(/C=C(\C#N)c2nc(N)nc(N3N=C(C)CC3(C)C)n2)cc1 | 35.2 µM | 79.1 µM | > 49.2 µM | > 100 µM | 14.6 µM | 36.5 µM | 19.9 µM | 71.2 µM | 26.1 µM | > 100 µM | – | – | – | – | – | – | – | – | – | –
CSc1ccc2c(cc1=O)[C@@H](NC(C)=O)CCc1cc(O)c(O)c(O)c1-2 | > 100 µM | 50.5 µM | 29.2 µM | 19.8 µM | 33.4 µM | 39.3 µM | > 100 µM | > 100 µM | 45.3 µM | > 100 µM | – | – | – | – | – | – | – | – | – | –
O=C(O)CC(C(=O)O)c1ccccc1[N+](=O)[O-] (stereo unspecified) | > 100 µM | > 100 µM | > 100 µM | > 100 µM | > 100 µM | > 100 µM | > 100 µM | > 100 µM | > 100 µM | > 100 µM | – | – | – | – | – | – | – | – | – | –
CCN(CC)C(=S)SS(=O)(=O)c1ccccc1C(=O)O | > 100 µM | > 100 µM | > 100 µM | > 100 µM | > 100 µM | > 36.3 µM | > 100 µM | > 100 µM | > 100 µM | > 100 µM | – | – | – | – | – | – | – | – | – | –
Cc1[nH]c2ncn3nc(C(Cl)(Cl)Cl)nc3c2c1Cc1ccccc1 | > 100 µM | > 100 µM | > 100 µM | > 100 µM | > 100 µM | > 100 µM | > 100 µM | > 100 µM | > 100 µM | > 100 µM | – | – | – | – | – | – | – | – | – | –
Cc1ccc(S(=O)ON2CCC(C(=O)O)(c3ccccc3)CC2)cc1 (stereo unspecified) | > 100 µM | > 100 µM | > 100 µM | > 100 µM | > 100 µM | > 100 µM | > 100 µM | > 100 µM | > 100 µM | > 100 µM | – | – | – | – | – | – | – | – | – | –
Clc1ccc(-c2nn3c(CCCCCCCCc4nnc5sc(-c6ccc(Cl)cc6)nn45)nnc3s2)cc1 | > 85.9 µM | > 100 µM | 30.6 µM | > 73.3 µM | > 100 µM | 28.8 µM | > 90.4 µM | > 63.1 µM | 39.8 µM | > 95.2 µM | – | – | – | – | – | – | – | – | – | –
COc1ccc2c(c1)C(N)CC2=O (stereo unspecified) | > 100 µM | > 100 µM | > 100 µM | > 100 µM | > 100 µM | > 100 µM | > 100 µM | > 100 µM | > 100 µM | > 100 µM | – | – | – | – | – | – | – | – | – | –
C=C1C(=O)O[C@@H]2[C@H]3O[C@]3(C)CCC=C(C)CC[C@@H]12 | 13.3 µM | 56.1 µM | 68.8 µM | 47.4 µM | 49.1 µM | 17.1 µM | 131 µM | 50.2 µM | 88.6 µM | 34.9 µM | – | – | – | – | – | – | – | – | – | –
O=C(c1ccccc1)c1ccc(C(c2c(O)c3ccccc3oc2=O)c2c(O)c3ccccc3oc2=O)cc1 | 62.6 µM | 50.4 µM | > 63.5 µM | > 100 µM | 55 µM | 43 µM | 38.4 µM | > 77.2 µM | > 78.4 µM | 49.5 µM | – | – | – | – | – | – | – | – | – | –
CCOC(=O)CN1CCNCCN(CC(=O)OCC)CCNCC1 | > 100 µM | > 100 µM | > 100 µM | > 100 µM | > 100 µM | > 100 µM | > 100 µM | > 100 µM | > 100 µM | > 100 µM | – | – | – | – | – | – | – | – | – | –
CC1NC(=O)CNC(=O)CNC(=O)C(Cc2ccc(O)cc2)NC(=O)C(C(C)C)NC(=O)C(C)NC1=O (stereo unspecified) (cyclo(GGAAVY); configuration not given here) | > 100 µM | > 100 µM | > 100 µM | > 100 µM | > 100 µM | > 100 µM | > 100 µM | > 100 µM | > 100 µM | > 100 µM | 75.6 µM | > 100 µM | – | – | – | – | – | – | – | –
CCOc1c2ccsc2c(OCC)c2ccsc12 | > 100 µM | > 75.5 µM | > 36 µM | 31.7 µM | > 100 µM | > 28.9 µM | > 100 µM | > 100 µM | > 100 µM | > 100 µM | – | – | – | – | – | – | – | – | – | –
Cc1cc2nc3n[nH]c(N)c3nc2cc1C | > 100 µM | > 100 µM | > 100 µM | > 100 µM | > 100 µM | > 100 µM | > 100 µM | > 100 µM | > 100 µM | > 100 µM | – | – | – | – | – | – | – | – | – | –
COc1ccc(/C=C2\C=Cc3ccccc32)cc1OC | > 100 µM | > 100 µM | > 100 µM | > 100 µM | > 100 µM | > 100 µM | > 100 µM | > 100 µM | > 100 µM | > 100 µM | – | – | – | – | – | – | – | – | – | –
Cc1ccc(Nc2nc(=S)[nH]c3[nH]ncc23)cc1 | > 100 µM | > 100 µM | > 100 µM | > 100 µM | > 100 µM | > 100 µM | > 100 µM | > 100 µM | > 100 µM | > 100 µM | – | – | – | – | – | – | – | – | – | –
CN(C)c1nc(N(C)C)nc(N(C)C)n1 | > 150 µM | > 123 µM | > 150 µM | > 150 µM | > 150 µM | > 150 µM | > 150 µM | > 150 µM | > 150 µM | > 150 µM | – | – | – | – | – | – | – | – | – | –
CSC(SC)=C1CC(=O)Nc2ccccc2C1=O | > 100 µM | > 100 µM | > 100 µM | > 100 µM | > 100 µM | > 100 µM | > 100 µM | > 100 µM | > 100 µM | > 100 µM | – | – | – | – | – | – | – | – | – | –
CCc1ccc(-c2nnc(COc3ccc(-c4nc5ccc(C)cc5[nH]4)cc3OC)o2)cc1 | 4.72 µM | > 100 µM | > 100 µM | > 100 µM | 4.28 µM | 25.2 µM | 11.1 µM | 5.52 µM | 5.79 µM | 16.2 µM | 1.97 µM | 3.1 µM | 11.4 µM | 3.66 µM | 3.36 µM | 2.01 µM | 3.29 µM | 2.2 µM | 2.32 µM | 3.57 µM
C/C(=N/NC(=S)Nc1ccccc1Cl)c1ccccn1 | 9.31 µM | 18.1 µM | 24.7 µM | 0.27 µM | 1.65 µM | 8.19 µM | 13.7 µM | 8.4 µM | 15.3 µM | 1.07 µM | – | – | – | – | – | – | – | – | – | –
CCOC(=O)c1cc2cc(N(C(C)=O)C(C)=O)ccc2s1 | 35.1 µM | > 100 µM | 67.9 µM | > 100 µM | 47.8 µM | 55.3 µM | > 100 µM | 71.2 µM | 59.6 µM | > 100 µM | – | – | – | – | – | – | – | – | – | –
CC(=O)N=C(N=Nc1c(O)[nH]c2ccc(C)cc12)NC(C)=O | > 100 µM | > 100 µM | > 100 µM | > 100 µM | > 100 µM | > 100 µM | > 100 µM | > 100 µM | > 100 µM | > 100 µM | – | – | – | – | – | – | – | – | – | –
Cc1ccc(/C=C2\CN(C)CC3=C2OC(N)=C(C#N)C3c2ccc(C)cc2)cc1 (stereo unspecified) | 45.2 µM | 37.2 µM | 34.2 µM | 47.8 µM | 72.4 µM | > 49.9 µM | 35.3 µM | 35.3 µM | > 61.1 µM | 43.1 µM | – | – | – | – | – | – | – | – | – | –
Brc1cccc(/C=C/CN2CCN(CCOC(c3ccccc3)c3ccccc3)CC2)c1 | 32 µM | 21.3 µM | 24.2 µM | 29.5 µM | 38.2 µM | 29.3 µM | 34.9 µM | 32.3 µM | 27.5 µM | 33.4 µM | – | – | – | – | – | – | – | – | – | –
C=C(O)c1ccccc1C#Cc1ccccc1C(=O)OC | > 10 µM | > 10 µM | > 10 µM | > 10 µM | > 10 µM | > 10 µM | > 10 µM | > 10 µM | > 10 µM | > 10 µM | – | – | – | – | – | – | – | – | – | –
C[C@]12CC[C@@H]3c4ccc(O)cc4CC[C@H]3[C@@H]1C/C(=C\c1ccc([N+](=O)[O-])cc1)C2=O | > 100 µM | > 100 µM | 37.2 µM | > 100 µM | > 100 µM | 65.4 µM | > 100 µM | > 100 µM | > 100 µM | > 100 µM | – | – | – | – | – | – | – | – | – | –
CCOC(=O)c1nc2cc(N3CCOCC3)c(F)cc2[nH]c1=O | > 100 µM | > 100 µM | > 100 µM | > 100 µM | > 100 µM | > 100 µM | > 100 µM | > 100 µM | > 100 µM | > 100 µM | – | – | – | – | – | – | – | – | – | –
Cc1ccc(-c2c(C#N)c(-c3ccc(Cl)cc3)c(C#N)c(=O)n2NS(=O)(=O)c2ccccc2)cc1 | > 100 µM | > 100 µM | > 100 µM | > 100 µM | > 100 µM | > 100 µM | > 100 µM | > 100 µM | > 100 µM | > 100 µM | – | – | – | – | – | – | – | – | – | –
